{"source": "patent US10864269B2", "about": "“Therapeutic combinations comprising anti-CD73 antibodies and uses thereof” (MedImmune Limited, priority 2014, dated 2020)", "key": {"[1]": {"molecular_target": "T1, native CD73, 4T1 cells (Mus musculus, UniProt Q61503)", "T1 construct": "native CD73 expressed on human, murine, and cynomolgus monkey cell lines; endogenous in cells; host or cells: 4T1", "T1 sequence (Q61503 29-551)": "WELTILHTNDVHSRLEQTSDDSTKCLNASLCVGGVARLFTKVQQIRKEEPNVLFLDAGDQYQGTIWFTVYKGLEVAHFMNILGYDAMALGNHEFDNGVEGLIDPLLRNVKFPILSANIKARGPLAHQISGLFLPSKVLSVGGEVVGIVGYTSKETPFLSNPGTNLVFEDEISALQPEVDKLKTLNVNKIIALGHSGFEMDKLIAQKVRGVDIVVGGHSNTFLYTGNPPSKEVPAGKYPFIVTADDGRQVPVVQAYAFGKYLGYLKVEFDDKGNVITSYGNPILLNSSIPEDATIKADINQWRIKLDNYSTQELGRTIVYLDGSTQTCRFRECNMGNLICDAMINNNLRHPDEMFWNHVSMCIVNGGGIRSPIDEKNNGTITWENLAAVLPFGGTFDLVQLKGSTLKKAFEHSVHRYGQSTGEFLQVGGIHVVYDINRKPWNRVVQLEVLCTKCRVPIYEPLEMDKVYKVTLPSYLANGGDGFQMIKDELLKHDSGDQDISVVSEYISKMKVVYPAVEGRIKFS", "test": "Flow cytometry binding to native CD73, 4T1 cells", "conditions": "as measured by flow cytometry; read-out: KD, CD73 on the surface of murine 3T1 cells", "procedure": "(§1) Binding of MEDI9447 to native CD73 expressed on human, murine, and cynomolgus monkey cell lines was characterized by flow cytometry. The cells were incubated with various concentrations of MEDI9447 and antibody binding was monitored with and fluorophore-labeled anti-human Fc antibody. A plot of the median fluorescence intensity as a function of the MEDI9447 concentration was fitted nonlinearly using a one-site binding isotherm model to calculate the equilibrium dissociation constant.\n(§2) The affinity of enhanced anti-CD73 antibodies (in IgG1-TM format) to human, murine, and cynomolgus CD73 was determined by flow cytometry and surface plasmon resonsance (SPR) (Table 13). The enhanced antibodies had pM affinity to cellular and recombinant CD73 from the three species.\n(§3) All flow cytometry experiments were run at 4C and reagents were prepared in PBS/1% FBS buffer. 10,000 cells were incubated with test antibody in 50 uL volume for 4 hours. Cells were washed twice and incubated in 50 uL goat anti-human IgGFc-AlexaFluor647 conjugate for 15 minutes. Cells were washed, resuspended in buffer supplemented with Dapi, and analyzed on a flow cytometer. […] For the determination of KD values, a plot of the median fluorescence intensity as a function of test antibody concentration was fitted nonlinearly using a one site binding isotherm model."}, "[2]": {"test_system": "native CD73, MK-1 cells", "test": "Flow cytometry binding to native CD73, MK-1 cells", "conditions": "as measured by flow cytometry; read-out: KD, CD73 on the surface of cynomolgus MK-1 cells", "procedure": "as §1, §2, §3"}, "[3]": {"molecular_target": "T2, surface-expressed CD73, NCI-H322 cells (Homo sapiens, UniProt P21589)", "T2 construct": "In a cell-based assay of surface-expressed CD73; endogenous in cells; host or cells: NCI-H322", "T2 sequence (P21589 27-549)": "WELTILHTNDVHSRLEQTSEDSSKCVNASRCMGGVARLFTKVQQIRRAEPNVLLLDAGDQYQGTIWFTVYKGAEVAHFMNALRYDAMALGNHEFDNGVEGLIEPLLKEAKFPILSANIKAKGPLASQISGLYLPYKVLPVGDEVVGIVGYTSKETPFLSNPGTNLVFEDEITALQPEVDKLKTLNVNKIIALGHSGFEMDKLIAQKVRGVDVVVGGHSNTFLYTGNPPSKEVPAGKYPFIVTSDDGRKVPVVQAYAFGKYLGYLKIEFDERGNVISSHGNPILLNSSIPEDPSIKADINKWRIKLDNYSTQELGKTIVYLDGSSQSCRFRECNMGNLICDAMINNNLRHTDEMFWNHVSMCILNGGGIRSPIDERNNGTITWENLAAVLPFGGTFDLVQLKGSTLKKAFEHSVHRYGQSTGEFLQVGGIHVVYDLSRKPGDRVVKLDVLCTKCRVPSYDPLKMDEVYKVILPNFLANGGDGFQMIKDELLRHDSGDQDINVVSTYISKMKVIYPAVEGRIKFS", "test": "Cell-based inhibition of 5′ ectonucleotidase (CD73-catalyzed hydrolysis of AMP)", "conditions": "CD73-expressing NSCLC cells, 200 μM AMP, 24 hours", "procedure": "In this study, the functional activity of MEDI9447 was determined in an in vitro assay that measured the CD73-catalyzed hydrolysis of AMP using a human non-small cell carcinoma cell line, NCI-H322. Formulation of MEDI9447 was prepared by diluting its stock solution in serum-free RPMI medium to a final concentration of 1 μM. Formulation of R347 was prepared by diluting its stock solution in RPMI to a final concentration of 1 μM.\nNCI-H322 cells were centrifuged for 5 minutes at 1500 rpm. The supernatant was removed and replaced with serum-free RPMI medium. The cell suspension was counted using the VI-CELL (Beckman, Coulter) cell counter. The cells were plated into 96-well plates at a cell density of 10,000 cells per 100 μLs per well. […], of 4× concentrated AMP (200 μM) was added. […] Cellular enzyme inhibition of 5′ ectonucleotidase was measured on a multilabel reader, the Perkin-Elmer Envision Workstation. The samples were analyzed using Prism Software.\nThe results depicted in FIG. 3 were obtained using CD73-expressing NSCLC cells that were plated into 96-well non-tissue culture treated plates (Falcon 3788) at 10,000 cells per well in 100 μL of RPMI medium without additives. […] CELLTITER-GLO® reagent (Promega) was added 1:1 and cellular CD73 enzyme AMP phosphorylase activity was determined by measuring ATP levels using the Envision luminescence plate reader (Perkin Elmer). […]"}, "[4]": {"test_system": "Cynomolgus CD73 ECD", "test": "Surface plasmon resonance (ProteOn), cynomolgus CD73", "format": "binding", "conditions": "SPR", "procedure": "A ProteOn XPR36 instrument was used to characterize binding of MEDI9447 to human, murine, and cynomolgus CD73 ECD. MEDI9447 was affinity-captured using an anti-human Fc antibody. CD73 ECD was in the mobile phase. The association and dissociation of CD73 to MEDI9447 could be accurately described with the Langmuir 1:1 model.\nas §2"}}, "data": [{"substance": "MEDI9447: IgG1 with CD730010-derived VL of SEQ ID NO: 68 and VH of SEQ ID NO: 82", "values": [{"measurement": "Kd", "setting": "[1]", "value": "~0.11", "unit": "nM"}, {"measurement": "Kd", "setting": "[2]", "value": "~0.08", "unit": "nM"}, {"measurement": "conversion of adenosine monophosphate to adenosine", "setting": "[3]", "value": "reduced in a dose-dependent manner"}, {"measurement": "ka", "setting": "[4]", "value": "2.71e+06", "unit": "M⁻¹ s⁻¹"}, {"measurement": "kd", "setting": "[4]", "value": "1.76e-05", "unit": "s⁻¹"}]}]}
